Results from ChEMBL document CHEMBL1201862, “PubChem BioAssay data set” (2004).
The source made the active and inactive calls.

Legend:
[1] = target: Voltage-gated inwardly rectifying potassium channel KCNH2 (Homo sapiens, UniProt Q12809); conditions: Potency;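 note: confirmatory quantitative high-throughput screen measuring inhibition of hERG channel activity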
HeLa = experiment: ATP-based viability loss in HeLa cells – cell-based, CellTiter-Glo luminescence, cherry-pick samples, cytotoxicity control for MITF activator project, dose response (AID 540259); type: functional; conditions: Homo sapiens
[2] = target: T1, Aryl hydrocarbon receptor (Homo sapiens, UniProt P35869); conditions: Potency;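 note: confirmatory quantitative high-throughput screen measuring activation of the AhR signaling pathway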
T1 sequence (P35869 whole entry): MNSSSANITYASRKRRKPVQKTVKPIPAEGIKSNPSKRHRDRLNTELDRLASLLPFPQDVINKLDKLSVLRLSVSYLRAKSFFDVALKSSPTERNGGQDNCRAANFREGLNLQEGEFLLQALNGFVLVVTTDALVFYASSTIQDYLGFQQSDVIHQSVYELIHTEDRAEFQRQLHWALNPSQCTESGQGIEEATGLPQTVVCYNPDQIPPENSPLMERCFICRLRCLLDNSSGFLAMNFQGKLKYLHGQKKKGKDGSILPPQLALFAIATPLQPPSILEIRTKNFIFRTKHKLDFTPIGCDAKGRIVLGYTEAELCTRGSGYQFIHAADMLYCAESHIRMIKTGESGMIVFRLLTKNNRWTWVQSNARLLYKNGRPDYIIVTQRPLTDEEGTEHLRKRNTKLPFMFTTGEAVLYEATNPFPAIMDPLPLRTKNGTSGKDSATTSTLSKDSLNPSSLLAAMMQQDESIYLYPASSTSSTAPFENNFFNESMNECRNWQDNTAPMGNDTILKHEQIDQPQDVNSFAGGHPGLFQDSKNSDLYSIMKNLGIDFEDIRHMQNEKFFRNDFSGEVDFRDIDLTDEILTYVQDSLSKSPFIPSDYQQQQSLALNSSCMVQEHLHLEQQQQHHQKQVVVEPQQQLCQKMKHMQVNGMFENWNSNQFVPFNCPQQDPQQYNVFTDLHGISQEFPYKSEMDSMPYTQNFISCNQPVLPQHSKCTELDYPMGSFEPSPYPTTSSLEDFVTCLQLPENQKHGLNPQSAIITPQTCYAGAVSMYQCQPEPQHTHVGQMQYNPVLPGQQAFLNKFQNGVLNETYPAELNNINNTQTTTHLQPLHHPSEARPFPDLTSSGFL

Nonstructural protein 1 = Nonstructural protein 1 (Influenza A virus, UniProt Q194T2); type: functional, Influenza A virus (A/California/07/2009(H1N1))
[3] = MIN6 cell viability loss – mouse insulinoma, cytotoxicity control, dose response (AID 2122); type: functional;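 note: confirmatory high-throughput counterscreen run to flag cytotoxic compounds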
[4] = target: T2, Polyadenylate-binding protein 1 (Homo sapiens, UniProt P11940); experiment: MLLE domain peptide-binding blockers, IC50 – biochemical, fluorescence polarization, FITC-PAM2 peptide, dose response (AID 602259); type: functional; conditions: read-out: IC50_Mean
[5] = decrease of insulin promoter-GFP reporter – imaging, high-content screening, mouse beta cells (AID 1628); type: functional; conditions: MIN6
[6] = target: T2, Polyadenylate-binding protein 1; experiment: MLLE binding blockers, Cy5 peptide tracer – biochemical, fluorescence polarization, Cy5-PAM2 peptide, secondary, miRNA deadenylation inhibitor project, dose response (AID 602260); type: functional; conditions: read-out: IC50_Mean
CHO = CHO cell viability loss, potency – luminescence, cytotoxicity control for TLR9-MyD88 binding inhibitor project, dose response (AID 588339); type: functional, cell-based, hamster; conditions: Cricetulus griseus;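 note: CHO cells stably coexpressing TLR9 and MyD88 fusions from primary screen; compound exposure lasted 48 hours before viability readout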
Beta Lactamase = Beta Lactamase (Pseudomonas aeruginosa, UniProt Q932Y6); experiment: BLA reporter interference, concentration series – BLA reporter cells, FRET fluorescence, artefact control for TLR9-MyD88 binding inhibitor project, dose response (AID 588341); type: cell-based;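 note: cell based assay in CHO-K1 cells stably expressing beta-lactamase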
[7] = target: Induced myeloid leukemia cell differentiation protein Mcl-1 (Homo sapiens, UniProt Q07820); type: functional
Streptococcus = experiment: GAS UMAA2166 growth inhibition – luminescence, BacTiterGlo, counter-screen for streptokinase expression inhibitor project, dose response (AID 1915); type: functional, organism-based;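 note: potency for reduction of bacterial viability or growth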
[8] = NIH-3T3 fibroblast cytotoxicity, dose response, cytotoxicity control, cell-based, fluorescence, Alamar Blue, secondary assay (AID 2327); type: functional;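 note: NIH-3T3 mouse fibroblasts cultured with fluconazole at 8 µg/mL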
[9] = fluconazole-exposed Candida albicans growth modulators – fluorescence, retest, confirmation (AID 2467); type: functional, cell-based
[10] = target: ATP-dependent molecular chaperone HSP82 (Candida albicans (strain WO-1) (Yeast), UniProt C4YTQ8); experiment: steroid-induced GRE reporter decrease in yeast – S. cerevisiae, luminescence, Hsp90 inhibitor project, dose response (AID 2400); type: functional, cell-based;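 note: beta-galactosidase luminescence from glucocorticoid response element reporter as proxy for Hsp90 function; inhibitor potency where signal loss means Hsp90 inhibition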
[11] = Luminescence Cell-Based Dose Response HTS to Identify Inhibitors of 5'UTR Stem-Loop Driven Prion Protein mRNA Translation in H4 Neuroglioblastoma Cells. [Related pubchem assays: 1827 (Project Summary), 1813 (Primary HTS)]; type: functional
[12] = luciferase reporter signal suppression in cells – H4 neuroglioma cells, luminescence, dose response (AID 1990); type: functional, cell-based
Vero [13] = experiment: cells; type: functional; conditions: Chlorocebus sabaeus
[14] = alpha-synuclein stem-loop luciferase translation blockers – H4 neuroglioma cells, luminescence, confirmation (AID 1988); type: functional, cell-based
[15] = target: T3, Serine/threonine-protein phosphatase (Candida dubliniensis (strain CD36 / CBS 7987 / NCPF 3949 / NRRLY-17841) (Yeast), UniProt B9W6M3); experiment: blockers of CaCl2-induced CDRE-lacZ signaling – S. cerevisiae, luminescence, secondary, dose response (AID 2388); type: functional, cell-based;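 note: yeast reporter cells carrying a calcineurin-responsive lacZ construct stimulated with calcium chloride; luminescent beta-galactosidase reporter signal in whole cells rather than isolated phosphatase activity; potency for inhibition where a drop in reporter signal means calcineurin blockade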
T3 sequence (B9W6M3 whole entry): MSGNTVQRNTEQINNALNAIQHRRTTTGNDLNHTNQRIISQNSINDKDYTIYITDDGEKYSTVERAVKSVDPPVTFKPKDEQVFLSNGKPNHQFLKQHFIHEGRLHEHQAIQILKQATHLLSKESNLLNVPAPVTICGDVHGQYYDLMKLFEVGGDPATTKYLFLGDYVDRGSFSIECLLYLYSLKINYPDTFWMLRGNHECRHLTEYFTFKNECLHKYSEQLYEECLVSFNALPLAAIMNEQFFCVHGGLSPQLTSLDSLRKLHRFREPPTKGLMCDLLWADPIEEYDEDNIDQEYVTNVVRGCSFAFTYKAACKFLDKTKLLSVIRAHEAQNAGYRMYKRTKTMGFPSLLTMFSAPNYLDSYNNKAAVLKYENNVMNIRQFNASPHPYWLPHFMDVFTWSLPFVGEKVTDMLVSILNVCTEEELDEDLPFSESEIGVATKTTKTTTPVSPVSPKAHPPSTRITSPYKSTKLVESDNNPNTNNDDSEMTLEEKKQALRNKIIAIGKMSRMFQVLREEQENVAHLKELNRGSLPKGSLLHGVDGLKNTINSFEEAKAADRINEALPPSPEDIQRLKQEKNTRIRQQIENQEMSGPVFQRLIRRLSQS

Vero [16] = experiment: viability of Vero cells under compound – cytotoxicity control for flavivirus capping enzyme inhibitors (AID 588742); type: functional; conditions: Chlorocebus sabaeus
[17] = tested on: Streptococcus sp. 'group A'; experiment: Streptococcus pyogenes SK(-)GAS viability under kanamycin – luminescence, BacTiterGlo, confirmation, counter-screen for streptokinase expression inhibitor project, dose response (AID 1900); type: functional, organism-based
[18] = Luminescence Cell-Based Dose Confirmation HTS to Identify Inhibitors of Platelet Dense Granule Release. [Related pubchem assays: 1663 (Primary HTS), 1678 (Summary of Project)]; type: functional
[19] = target: Luciferin 4-monooxygenase (Photinus pyralis, UniProt P08659); experiment: inhibition of purified Photinus pyralis luciferase – biochemical, luminescence, dose response (AID 1891)
[20] = target: Latent membrane protein 1 (Human herpesvirus 4 (strain B95-8), UniProt P03230); experiment: LMP1 TES1 pathway selectivity over dsRED control – imaging, HEK293T, dual-color eGFP/dsRED, cherry-picks, selectivity assay for LMP1 NF-kB inhibitor project, dose response (AID 588398); type: functional, cell-based
HEK293 = experiment: EBV LMP1 TES2 canonical NF-kB signalling blockers – cell-based, HEK293, luciferase, cherry-pick, dose response (AID 588343); type: functional; conditions: Homo sapiens

T2 sequence (P11940 whole entry, the tested form may be a part): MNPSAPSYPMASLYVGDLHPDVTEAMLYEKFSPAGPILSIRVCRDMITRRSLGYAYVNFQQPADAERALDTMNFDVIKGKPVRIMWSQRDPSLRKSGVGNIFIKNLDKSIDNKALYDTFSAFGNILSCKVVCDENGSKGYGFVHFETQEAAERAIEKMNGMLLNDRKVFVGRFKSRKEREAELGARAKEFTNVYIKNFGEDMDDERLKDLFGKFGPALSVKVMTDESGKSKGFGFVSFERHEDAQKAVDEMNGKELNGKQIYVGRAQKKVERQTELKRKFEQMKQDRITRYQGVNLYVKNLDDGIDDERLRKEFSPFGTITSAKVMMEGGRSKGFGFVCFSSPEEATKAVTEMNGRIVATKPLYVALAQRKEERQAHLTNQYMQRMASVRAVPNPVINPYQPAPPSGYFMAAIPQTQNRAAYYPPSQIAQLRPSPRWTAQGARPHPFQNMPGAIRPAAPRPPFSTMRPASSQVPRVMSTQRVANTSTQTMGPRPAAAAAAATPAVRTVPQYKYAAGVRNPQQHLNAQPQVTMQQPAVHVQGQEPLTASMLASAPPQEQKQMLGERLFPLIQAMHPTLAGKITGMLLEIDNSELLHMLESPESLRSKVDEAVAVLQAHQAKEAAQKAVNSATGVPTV
Chain of ATP-dependent molecular chaperone HSP82 (C4YTQ8 whole entry): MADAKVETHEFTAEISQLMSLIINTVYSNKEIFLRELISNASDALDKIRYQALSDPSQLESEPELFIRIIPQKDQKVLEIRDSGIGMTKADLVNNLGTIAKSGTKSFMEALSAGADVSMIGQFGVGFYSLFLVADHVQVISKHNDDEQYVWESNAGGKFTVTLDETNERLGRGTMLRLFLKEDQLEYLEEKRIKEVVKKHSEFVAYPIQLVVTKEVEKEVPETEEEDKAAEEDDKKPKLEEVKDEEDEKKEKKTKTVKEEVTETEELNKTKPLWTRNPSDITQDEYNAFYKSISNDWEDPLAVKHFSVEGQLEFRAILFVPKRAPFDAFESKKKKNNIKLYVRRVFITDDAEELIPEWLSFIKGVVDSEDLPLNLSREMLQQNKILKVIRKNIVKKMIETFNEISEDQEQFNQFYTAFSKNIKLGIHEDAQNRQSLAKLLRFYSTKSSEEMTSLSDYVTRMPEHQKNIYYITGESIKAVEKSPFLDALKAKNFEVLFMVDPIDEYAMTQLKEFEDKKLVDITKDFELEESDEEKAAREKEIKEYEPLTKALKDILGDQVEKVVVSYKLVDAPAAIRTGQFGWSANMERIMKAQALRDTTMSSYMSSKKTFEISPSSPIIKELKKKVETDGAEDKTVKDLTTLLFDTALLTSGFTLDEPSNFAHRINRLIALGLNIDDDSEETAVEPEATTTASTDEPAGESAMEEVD
Chain of Nonstructural protein 1 (Q194T2 whole entry): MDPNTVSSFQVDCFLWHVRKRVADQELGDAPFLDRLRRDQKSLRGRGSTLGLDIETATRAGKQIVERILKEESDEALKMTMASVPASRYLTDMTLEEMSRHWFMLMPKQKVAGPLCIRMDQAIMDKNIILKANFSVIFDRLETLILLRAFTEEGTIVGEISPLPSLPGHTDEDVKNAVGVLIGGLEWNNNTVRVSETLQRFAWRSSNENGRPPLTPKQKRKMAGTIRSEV
Chain of Latent membrane protein 1 (P03230 whole entry): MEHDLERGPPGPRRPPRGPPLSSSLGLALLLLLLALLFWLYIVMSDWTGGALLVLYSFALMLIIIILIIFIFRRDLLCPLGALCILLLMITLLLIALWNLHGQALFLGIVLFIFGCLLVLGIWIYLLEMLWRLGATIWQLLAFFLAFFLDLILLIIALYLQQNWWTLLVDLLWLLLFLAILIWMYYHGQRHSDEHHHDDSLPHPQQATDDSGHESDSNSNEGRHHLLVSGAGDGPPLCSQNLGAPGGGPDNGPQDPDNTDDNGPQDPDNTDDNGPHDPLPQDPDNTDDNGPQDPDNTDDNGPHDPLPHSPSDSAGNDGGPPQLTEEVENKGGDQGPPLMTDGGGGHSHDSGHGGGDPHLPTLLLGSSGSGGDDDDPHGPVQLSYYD
Chain of Beta Lactamase (Q932Y6 whole entry): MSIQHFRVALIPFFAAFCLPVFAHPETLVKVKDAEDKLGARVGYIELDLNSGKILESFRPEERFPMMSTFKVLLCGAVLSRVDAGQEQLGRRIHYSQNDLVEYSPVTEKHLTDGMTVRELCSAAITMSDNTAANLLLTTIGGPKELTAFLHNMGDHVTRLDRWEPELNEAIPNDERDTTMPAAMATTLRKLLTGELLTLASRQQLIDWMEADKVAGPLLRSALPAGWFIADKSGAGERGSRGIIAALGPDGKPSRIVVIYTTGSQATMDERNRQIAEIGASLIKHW
Chain of Voltage-gated inwardly rectifying potassium channel KCNH2 (Q12809 whole entry): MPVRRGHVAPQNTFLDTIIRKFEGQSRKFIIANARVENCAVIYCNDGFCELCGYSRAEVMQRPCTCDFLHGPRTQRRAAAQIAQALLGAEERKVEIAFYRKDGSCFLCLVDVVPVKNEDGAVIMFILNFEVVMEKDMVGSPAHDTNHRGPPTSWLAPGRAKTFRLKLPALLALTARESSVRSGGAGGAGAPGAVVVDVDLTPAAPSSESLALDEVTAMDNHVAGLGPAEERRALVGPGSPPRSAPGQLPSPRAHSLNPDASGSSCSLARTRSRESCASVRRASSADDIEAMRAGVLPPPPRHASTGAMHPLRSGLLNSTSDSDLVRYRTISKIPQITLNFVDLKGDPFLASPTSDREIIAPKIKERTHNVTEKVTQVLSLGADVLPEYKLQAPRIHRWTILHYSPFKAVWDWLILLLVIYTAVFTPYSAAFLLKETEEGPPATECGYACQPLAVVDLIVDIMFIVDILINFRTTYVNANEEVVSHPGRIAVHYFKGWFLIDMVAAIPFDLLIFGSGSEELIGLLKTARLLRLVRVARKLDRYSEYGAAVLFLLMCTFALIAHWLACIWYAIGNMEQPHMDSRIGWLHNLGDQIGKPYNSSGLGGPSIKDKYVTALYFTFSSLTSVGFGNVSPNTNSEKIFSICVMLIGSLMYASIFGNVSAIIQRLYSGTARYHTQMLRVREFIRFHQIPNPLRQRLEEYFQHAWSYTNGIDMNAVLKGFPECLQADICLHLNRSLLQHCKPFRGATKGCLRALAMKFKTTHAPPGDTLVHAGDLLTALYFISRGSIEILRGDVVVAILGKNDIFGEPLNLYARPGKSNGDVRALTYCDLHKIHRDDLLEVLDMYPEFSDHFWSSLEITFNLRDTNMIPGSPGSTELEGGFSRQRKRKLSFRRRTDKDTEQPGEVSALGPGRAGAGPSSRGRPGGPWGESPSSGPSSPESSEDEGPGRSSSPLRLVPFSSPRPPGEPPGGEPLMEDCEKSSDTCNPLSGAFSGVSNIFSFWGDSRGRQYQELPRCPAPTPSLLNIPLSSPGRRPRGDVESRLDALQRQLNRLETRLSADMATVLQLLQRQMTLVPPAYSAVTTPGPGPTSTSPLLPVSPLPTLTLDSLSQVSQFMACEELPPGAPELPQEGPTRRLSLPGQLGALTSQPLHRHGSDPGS
Chain of Luciferin 4-monooxygenase (P08659 whole entry): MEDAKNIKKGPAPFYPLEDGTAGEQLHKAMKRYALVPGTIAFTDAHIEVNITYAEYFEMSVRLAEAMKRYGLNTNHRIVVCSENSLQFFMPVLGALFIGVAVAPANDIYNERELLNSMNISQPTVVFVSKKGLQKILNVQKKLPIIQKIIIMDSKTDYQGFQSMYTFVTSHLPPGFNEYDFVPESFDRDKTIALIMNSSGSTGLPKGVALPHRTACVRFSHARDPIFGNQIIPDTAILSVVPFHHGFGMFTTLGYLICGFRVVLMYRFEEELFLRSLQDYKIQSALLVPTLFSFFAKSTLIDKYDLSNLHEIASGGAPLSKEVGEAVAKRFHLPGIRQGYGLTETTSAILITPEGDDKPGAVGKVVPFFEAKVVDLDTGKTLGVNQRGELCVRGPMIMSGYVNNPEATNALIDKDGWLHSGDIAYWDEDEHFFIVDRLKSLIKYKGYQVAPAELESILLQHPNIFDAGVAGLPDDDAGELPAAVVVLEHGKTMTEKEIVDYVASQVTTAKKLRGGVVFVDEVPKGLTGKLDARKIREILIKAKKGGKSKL
Chain of Induced myeloid leukemia cell differentiation protein Mcl-1 (Q07820 whole entry): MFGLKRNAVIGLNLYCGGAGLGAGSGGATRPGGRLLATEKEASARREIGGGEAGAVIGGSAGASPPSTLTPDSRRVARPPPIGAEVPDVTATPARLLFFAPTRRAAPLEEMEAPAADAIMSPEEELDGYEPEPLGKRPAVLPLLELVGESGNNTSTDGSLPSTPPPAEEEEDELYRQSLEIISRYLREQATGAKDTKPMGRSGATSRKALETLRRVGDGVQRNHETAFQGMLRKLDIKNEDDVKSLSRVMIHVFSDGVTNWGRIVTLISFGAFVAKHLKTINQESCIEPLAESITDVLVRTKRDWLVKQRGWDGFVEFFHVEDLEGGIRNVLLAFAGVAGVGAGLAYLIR

c1ccc(Nc2ccc(Nc3ccccc3)cc2)cc1
AC50 [1]: 20 µM (inconclusive)
AC50 (HeLa): 43.6 µM (active)
AC50 [2]: 50.1 µM (inconclusive)

CCCCN1C(=O)/C(=C2\SC(N3CCCCC3)=NC2=O)c2ccccc21
IC50 (Nonstructural protein 1): 27.4 µM (active)
IC50 [3]: 1.54 µM (active)
IC50 [4]: > 66 µM (inactive)
IC50 [5]: 2.13 µM (active)
AC50 (HeLa): 37.9 µM (active)
IC50 [6]: > 66 µM (inactive)

COc1ccc(C(=O)c2sc3nc(-c4ccc(OC)cc4)ccc3c2N)cc1
IC50 (CHO): 36.8 µM (inactive)
IC50 (Beta Lactamase): 4.44 µM (active)
IC50 [7]: 2.99 µM (not active)

Cc1cccc(/C=C/C(=O)c2cc(Br)ccc(=O)c2O)c1
EC50 (Streptococcus): 2.77 µM (active)
EC50 [8]: 42.4 µM (inconclusive)
EC50 [9]: 1.11 µM (active)
EC50 [10]: 6.88 µM (active)
EC50 [11]: > 120 µM (not active)
EC50 [12]: 11.6 µM (active)
CC50 (Vero [13]): 7.95 µM (active)
EC50 [14]: 9.67 µM (active)
EC50 [15]: > 180 µM (inactive)
CC50 (Vero [16]): 15.1 µM (active)
EC50 [17]: 1.78 µM (active)

COc1ccc(C(=O)Nc2ccc3[nH]ccc3c2)cc1
EC50 [18]: 5.61 µM (active)
EC50 [19]: 3.28 µM (active)
EC50 [11]: 13.6 µM (active)
AC50 [20]: 27.2 µM (active)
EC50 [14]: 7.91 µM (active)
AC50 (HEK293): 2.59 µM (active)
